The source made the active and inactive calls. The rule behind the calls is not given here. Peptide text beside a SMILES is read from it. * marks the point of attachment. Cbz = O=C(OCc1ccccc1)*

Data set [1] relates to MCF7. Briefly: Effect on ERalpha expression in human MCF7 cells at 5 uM incubated for 24 hrs by Western blot analysis. The data set is classed as functional, cell-based. A general note: In western blotting, separated proteins are transferred to a membrane and probed.
Data set [2] has as its system MCF7. Kind of data set: Antiproliferative activity against human MCF7 cells assessed as reduction in cell viability incubated for 48 hrs by MTT assay. The data set is classed as functional, cell-based. The note with it: MCF7, 48 h. Background: Tetrazolium dyes change colour on reduction, which living cells bring about.
Data set [3] in a line: Selectivity ratio of RBA for ERalpha (unknown origin) to RBA for ERbeta (unknown origin).
Data set [4] has as its target T1, Estrogen receptor (Homo sapiens) (UniProt P03372).
T1 sequence (whole entry): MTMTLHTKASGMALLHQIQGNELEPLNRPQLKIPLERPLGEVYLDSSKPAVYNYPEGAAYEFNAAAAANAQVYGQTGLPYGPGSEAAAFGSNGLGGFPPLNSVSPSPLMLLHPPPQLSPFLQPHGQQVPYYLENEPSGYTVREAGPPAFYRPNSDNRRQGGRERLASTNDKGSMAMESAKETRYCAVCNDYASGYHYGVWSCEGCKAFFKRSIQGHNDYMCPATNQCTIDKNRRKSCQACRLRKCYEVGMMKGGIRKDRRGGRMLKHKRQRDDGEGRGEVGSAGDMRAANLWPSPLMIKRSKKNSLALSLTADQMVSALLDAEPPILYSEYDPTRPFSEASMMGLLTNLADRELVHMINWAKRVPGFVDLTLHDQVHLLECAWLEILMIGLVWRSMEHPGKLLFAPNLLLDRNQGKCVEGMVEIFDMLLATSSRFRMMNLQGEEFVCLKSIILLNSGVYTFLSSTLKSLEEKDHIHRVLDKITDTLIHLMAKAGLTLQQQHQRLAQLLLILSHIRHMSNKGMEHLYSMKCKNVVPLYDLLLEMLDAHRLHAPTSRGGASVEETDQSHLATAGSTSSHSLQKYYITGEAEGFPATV
Kind of data set: Binding affinity to ERalpha (unknown origin) assessed as relative binding affinity incubated for 2 hrs in presence of coumestrol by fluorescence polarization based competitive binding assay relative to estradiol. Background: In fluorescence polarisation assays a small probe gives low polarisation when free and higher when bound to something large.

Another data set deals with DU-145. Briefly: Antiproliferative activity against human DU-145 cells assessed as reduction in cell viability incubated for 48 hrs by MTT assay. Type of data set: functional, cell-based. As to conditions: DU-145, 48 h.
For data set [5], the target named is Estrogen receptor beta (Homo sapiens) (UniProt Q92731). Briefly: Binding affinity to ERbeta (unknown origin) assessed as relative binding affinity incubated for 2 hrs in presence of coumestrol by fluorescence polarization based competitive binding assay relative to estradiol.
The target in data set [6] is T2, von Hippel-Lindau disease tumor suppressor/Estrogen receptor (Homo sapiens, UniProt P03372+P40337). Kind of data set: PROTAC activity at VHL/ERalpha in human MCF7 cells assessed as induction of ERalpha degradation at 5 uM by Western blot analysis. Type of data set: cell-based.
Target sequence in this assay (P40337 whole entry, looked up, one chain of several): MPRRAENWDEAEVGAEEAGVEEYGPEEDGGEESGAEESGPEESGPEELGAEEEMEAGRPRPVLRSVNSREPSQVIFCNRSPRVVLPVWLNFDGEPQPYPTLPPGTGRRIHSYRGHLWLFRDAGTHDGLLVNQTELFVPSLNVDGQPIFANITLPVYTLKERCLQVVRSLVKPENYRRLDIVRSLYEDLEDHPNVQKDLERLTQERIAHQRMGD
Data set [7] addresses T2, von Hippel-Lindau disease tumor suppressor/Estrogen receptor. Briefly: PROTAC activity at VHL/ERalpha in human MCF7 cells assessed as induction of ERalpha degradation at 0.05 to 0.5 uM incubated for 24 hrs in presence of 4-OHT by Western blot analysis. Type of data set: cell-based. The note with it: dose 0.05-0.5 µM.
Target sequence in this assay (P40337 whole entry, looked up, one chain of several): as above
Data set [8] in a line: Chemical reactivity of compound to KCl assessed as change in fluorescence response. Type of data set: physicochemical.
Data set [9] in a line: Photostability of the compound in DMSO/PBS solution assessed as decrease in fluorescence intensity at 466 nm excitation with Hamamatsu LC8 lightning cure (300 W) light for 2 hrs by fluorescence based analysis relative to initial value. Type of data set: physicochemical. Also on record: dose or concentration left out as unconfirmed. As to conditions: read-out: Activity.
The nature of data set [10]: Chemical reactivity of compound to NaHCO3 assessed as change in fluorescence response. Type of data set: physicochemical.
Data set [11] can be described thus: Drug uptake in ER positive human MCF7 cells assessed as increase in red fluorescence at 10 uM incubated for 30 mins in glucose-depleted DMEM medium by confocal laser scanning microscopic analysis. The data set is classed as ADME, cell-based. The note with it: mcf7, 0.5 h.
The target in data set [12] is T2, von Hippel-Lindau disease tumor suppressor/Estrogen receptor. Briefly: PROTAC activity at VHL/ERalpha in human MCF7 cells assessed as induction of ERalpha degradation at 0.5 uM incubated for 24 hrs in presence of VHL ligand by Western blot analysis. The data set is classed as cell-based.
Target sequence in this assay (P40337 whole entry, looked up, one chain of several): as above
Data set [13] in a line: Drug uptake in human MCF7 cells assessed as increase in red fluorescence at 10 uM measured after 24 hrs by confocal laser scanning microscopic analysis. Type of data set: ADME, cell-based. The note with it: mcf7, 24 h.
Data set [14] deals with T2, von Hippel-Lindau disease tumor suppressor/Estrogen receptor. Briefly: PROTAC activity at VHL/ERalpha in human MCF7 cells assessed as induction of ERalpha degradation incubated for 24 hrs by Western blot analysis. The data set is classed as cell-based.
Target sequence in this assay (P40337 whole entry, one chain of several): as the sequence (P40337 whole entry, looked up, one chain of several) above
A short description of data set [15]: Chemical reactivity of compound to glycine assessed as change in fluorescence response. Type of data set: physicochemical.
Data set [16] is described as follows: Chemical reactivity of compound to […] assessed as change in fluorescence response. The data set is classed as physicochemical.
Data set [17] can be described thus: Chemical reactivity of compound to methionine assessed as change in fluorescence response. The data set is classed as physicochemical.
The target of data set [18] is T2, von Hippel-Lindau disease tumor suppressor/Estrogen receptor. Kind of data set: PROTAC activity at VHL/ERalpha in human MCF7 cells assessed as induction of ERalpha degradation by measuring decrease in green fluorescence at 10 uM measured after 24 hrs by anti-ERalpha based immunofluorescence analysis. Type of data set: cell-based.
Target sequence in this assay (P40337 whole entry, looked up, one chain of several): as above
Data set [19] is described as follows: Chemical reactivity of compound to NaNO2 assessed as change in fluorescence response. The data set is classed as physicochemical.
Data set [20] can be described thus: Chemical reactivity of compound to CaCl2 assessed as change in fluorescence response. Type of data set: physicochemical.
Data set [21] can be described thus: Chemical reactivity of compound to lysine assessed as change in fluorescence response. Type of data set: physicochemical.
Data set [22] can be described thus: GSH reactivity of compound assessed as change in fluorescence response. Type of data set: physicochemical.
The target in data set [23] is T2, von Hippel-Lindau disease tumor suppressor/Estrogen receptor. Kind of data set: PROTAC activity at VHL/ERalpha in human MCF7 cells assessed as induction of ERalpha degradation at 0.5 uM incubated for 24 hrs in presence of MG132 by Western blot analysis. The data set is classed as cell-based.
Target sequence in this assay (P40337 whole entry, looked up, one chain of several): as above
A short description of data set [24]: Drug uptake in ER positive human MCF7 cells assessed as increase in red fluorescence at 10 uM incubated for 30 mins in glucose-depleted DMEM medium in presence of estradiol by confocal laser scanning microscopic analysis. Type of data set: ADME, cell-based. As to conditions: mcf7, 0.5 h.
Data set [25] is described as follows: Chemical reactivity of compound to MgCl2 assessed as change in fluorescence response. The data set is classed as physicochemical.

Estrogen receptor beta (Homo sapiens), sequence (Q92731 whole entry): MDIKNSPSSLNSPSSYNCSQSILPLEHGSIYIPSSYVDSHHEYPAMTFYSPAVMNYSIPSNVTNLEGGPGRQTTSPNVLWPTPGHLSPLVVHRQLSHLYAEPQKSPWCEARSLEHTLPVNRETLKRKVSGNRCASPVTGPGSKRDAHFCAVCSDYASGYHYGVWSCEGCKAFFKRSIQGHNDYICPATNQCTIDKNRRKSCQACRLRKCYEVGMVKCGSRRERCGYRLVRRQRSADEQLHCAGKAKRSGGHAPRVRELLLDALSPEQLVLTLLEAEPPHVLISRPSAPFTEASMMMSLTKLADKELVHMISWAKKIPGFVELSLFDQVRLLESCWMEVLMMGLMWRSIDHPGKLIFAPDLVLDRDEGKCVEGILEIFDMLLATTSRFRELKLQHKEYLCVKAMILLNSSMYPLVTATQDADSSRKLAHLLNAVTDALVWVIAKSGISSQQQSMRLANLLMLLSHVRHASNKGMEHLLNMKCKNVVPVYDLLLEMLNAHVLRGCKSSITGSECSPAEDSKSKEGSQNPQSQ

For `CC(C)C[C@@H](C=O)NC(=O)[C@H](CC(C)C)NC(=O)[C@H](CC(C)C)NC(=O)OCc1ccccc1` (Cbz-Leu-Leu-Leu-aldehyde), in the data set with MCF7 [1], the outcome was inactive.
As to `Cc1ncsc1-c1ccc([C@H](C)NC(=O)[C@@H]2C[C@@H](O)CN2C(=O)[C@@H](NC(=O)CCCCCOc2cc(O)ccc2/C=C/C2=CC(=C(C#N)C#N)c3cc(O)ccc3O2)C(C)(C)C)cc1`, the IC50 in the data set on MCF7 [2] and in the data set with DU-145 was greater than 100000 nM throughout. Also, the Selectivity ratio in data set [3] turned out to be 1.48. Further, the RBA was 3.69% in data set [4] and 2.48% in data set [5]. For the same molecule, in data set [6], the outcome was Active.
For the molecule `Cc1ncsc1-c1ccc([C@H](C)NC(=O)[C@@H]2C[C@@H](O)CN2C(=O)[C@@H](NC(=O)CCCCCCCCCCCOc2cc(O)ccc2/C=C/C2=CC(=C(C#N)C#N)c3cc(O)ccc3O2)C(C)(C)C)cc1`, the values for the IC50 with MCF7 [2] and with DU-145 were 33500 nM and greater than 100000 nM, respectively. Also, in data set [3], the Selectivity ratio is 1.51. In addition, the RBA in data set [4] was determined as 2.11%; in data set [5], 1.4%. The outcome in [6] was Active.
As to `C[C@]12CC[C@@H]3c4ccc(O)cc4C[C@@H](CCCCCCCCC[S+]([O-])CCCC(F)(F)C(F)(F)F)[C@H]3[C@@H]1CC[C@@H]2O` (stereo not given in full) [FULVESTRANT], in the data set on MCF7 [2], the IC50 was 3 nM.
`Cc1ncsc1-c1ccc([C@H](C)NC(=O)[C@@H]2C[C@@H](O)CN2C(=O)[C@@H](NC(=O)CCCCCCCCCOc2cc(O)ccc2/C=C/C2=CC(=C(C#N)C#N)c3cc(O)ccc3O2)C(C)(C)C)cc1`: the IC50 in the data set with MCF7 [2] was 51 nM; in the data set on DU-145, greater than 100000 nM. Besides, the result in data set [7] and in data set [12] was inactive. The Activity result in [8] was “Not_active”; in data set [10], “Not_active”; in [15] it was “Not_active”; in data set [16] it was “Not_active”; in data set [17], “Not_active”; in data set [18] it was “Active; Nearly Complete Disappearance Of Fluorescence Observed”. Moreover, the Activity entry in data set [19] was “Not_active”; in data set [20], “Not_active”; in [21], “Not_active”; in data set [23], “Not active; Mg132 Partly Blocked The Degradation”; in data set [25], “Not_active”. Moreover, the Selectivity ratio in data set [3] amounted to 2.03. Moreover, in [9], the degraded at 2 h is less than 5%. In addition, the Drug uptake entry in [11] is on record as “Active”; in data set [13] it was “Active”; in data set [24], “Not_active”. In addition, the RBA in data set [4] is 7.99%; in data set [5], 3.94%. Further, the DC50 in [14] turned out to be 120 nM. Also, the outcome in [6] was Active. Besides, in data set [22], the Drug metabolism entry is listed as “metabolite_notdetected”.
Take `Cc1ncsc1-c1ccc([C@H](C)NC(=O)[C@@H]2C[C@@H](O)CN2C(=O)[C@@H](NC(=O)CCCCCCCOc2cc(O)ccc2/C=C/C2=CC(=C(C#N)C#N)c3cc(O)ccc3O2)C(C)(C)C)cc1`: the figures for the IC50 with MCF7 [2] and with DU-145 were 110 nM and greater than 100000 nM, respectively. The Selectivity ratio in data set [3] was determined as 3.79. Moreover, the RBA in [4] is 2.48%; in [5], 0.65%. In data set [6], the outcome was Active.

As a reminder, the IC50 is the concentration that gives 50% inhibition. By DC50 is commonly meant the concentration at which degradation of the target reaches its halfway point.

Values taken from ChEMBL document CHEMBL6083176, “Fluorescence theranostic PROTACs for real-time visualization of ERα degradation” (Eur J Med Chem, 2024).
